Source: patent publication EP0435794A1, “Alkenyl- or heteroaryl thio, sulfone, sulfoxy herbicides” (RHONE-POULENC AGROCHIMIE, priority 1989, dated 1991)

What was measured:
Type in all cases: in vivo
[1] = tested on: ORYSA SATIVA Cv Nihonbare; experiment: Exemple D: herbicide application on submerged plants (rice paddy model), transplanted rice; settings: rice transplanted 4 days before treatment, 24 days
From the text: (§1) Exemple D : Application herbicide en pré ou post levée d'espèces végétales submergées (modèle rizière)
(§2) Dans des pots de 9 x 9 x 9 cm remplis de terre agricole on sème un nombre de graines ou on plante un nombre de bulbes ou rhizomes déterminé en fonction de l'espèce végétale ou de la grosseur des organes. Pour le riz, 4 plants au stade 2-3 feuilles sont transplantés dans un pot rempli de terre végétale 4 jours avant le traitement.
(§3) Les pots sont ensuite immergés dans un bac de taille adapté aux pots de manière à ce que l'eau recouvre de 1 à 2 cm la surface du sol.
(§4) Le stade de traitement est le stade prélevée ou 1 à 2 feuilles développées des adventices. Le traitement est effectué par répartition de la bouillie dans l'eau de submersion en quantité correspondant à une dose d'application de 500 l/ha et contenant la matière active à la concentration requise.
(§5) La bouillie utilisée pour le traitement est une solution ou suspension de la matière active dans un mélange acétone/eau en proportion 50/50, en présence de 0,05 % en poids de Cemulsol NP 10 (agent tensioactif constitué d'alkylphénol polyéthoxylé, notamment de nonylphénol polyéthoxylé) et 0,04 % en poids de tween 20 (agent tensio-actif constitué d'un oléate de dérivé polyoxyéthyléné du sorbitol).
(§6) Dans le cas d'une suspension, celle-ci est obtenue en mélangeant et broyant les ingrédients dans un microniseur de façon à obtenir une grosseur moyenne de particules inférieures à 40 microns.
(§7) Le niveau d'eau de submersion est ensuite maintenu par apport d'eau tout au long de la durée de l'expérimentation soit […]. Les bacs contenant les pots sont placés dans une serre régulée en température à 18°C la nuit et 22°C le jour et en humidité à 70 % d'humidité relative.
(§8) Au bout de 24 jours, on compte le nombre de plantes vivantes dans les pots traités par la bouillie contenant la matière active à tester et le nombre de plantes vivantes dans un pot témoin traité selon les mêmes conditions, mais au moyen d'une bouillie ne contenant pas de matière active. On mesure ainsi un pourcentage (D) des destructions du nombre de pieds dans le pot traité par rapport au nombre de plantes dans les pots non traités (témoin). On mesure, sur les plantes traitées restantes, le pourcentage de réduction de taille (RT) par rapport aux plantes témoin. Le pourcentage du volume foliaire non détruit par le produit est donc donné par la formule: ([100-D] x [100-RT])/(100)= A [formula]
(§9) Cette valeur A est transformée en notation de 0 à 5 selon l'échelle suivante:
(§10) Les résultats obtenus sont présentés dans le tableau suivant pour des doses d'application de 500, 1000 ou 2000 g de matière active par hectare.
COMPOSE N°5/RIZ (transplanté 4 jours avant traitement)

Echinochloa crus galli = experiment: Exemple D: herbicide application pre or post emergence on submerged plants (rice paddy model); settings: 24 days; for % d'efficacité ECHINOCHLOA CRUS GALLI (1 feuille): 1-leaf stage; for % d'efficacité ECHINOCHLOA CRUS GALLI (prélevée): pre-emergence
From the text: as §1, §2, §3, §4, §5, §6, §7, §8, §9, §10

ALISMA CANALICULATUM = experiment: as above; settings: 2-leaf stage, 24 days
From the text: as §1, §2, §3, §4, §5, §6, §7, §8, §9, §10

CYPERUS SEROTINUS = experiment: as above; settings: 24 days; for % d'efficacité CYPERUS SEROTINUS (1 feuille): 1-leaf stage; for % d'efficacité CYPERUS SEROTINUS (prélevée): pre-emergence
From the text: as §1, §2, §3, §4, §5, §6, §7, §8, §9, §10

[2] = 500 g de matière active par hectare
[3] = 1000 g de matière active par hectare

In the case of `CCCCOCN(C(=O)CCl)c1c(CC)cccc1CC` [Butachlor, reference compound], the “% d'efficacité ORYSA SATIVA Cv Nihonbare” value [1, 2] is reported as 0 (90 à 100), the “% d'efficacité ORYSA SATIVA Cv Nihonbare” value [1, 3] is reported as 0 (90 à 100) and the “% d'efficacité ECHINOCHLOA CRUS GALLI (1 feuille)” value (Echinochloa crus galli; [2]) is reported as 1 (70 à 90). The “% d'efficacité ECHINOCHLOA CRUS GALLI (1 feuille)” value (Echinochloa crus galli; [3]) was 4 (10 à 30), the “% d'efficacité ECHINOCHLOA CRUS GALLI (prélevée)” value (Echinochloa crus galli; [2]) was 5 (0 à 10) and the “% d'efficacité ECHINOCHLOA CRUS GALLI (prélevée)” value (Echinochloa crus galli; [3]) was 5 (0 à 10). The “% d'efficacité ALISMA CANALICULATUM (2 feuilles)” value (ALISMA CANALICULATUM; [2]) was 4 (10 à 30), the “% d'efficacité ALISMA CANALICULATUM (2 feuilles)” value (ALISMA CANALICULATUM; [3]) was 5 (0 à 10) and the “% d'efficacité CYPERUS SEROTINUS (1 feuille)” value (CYPERUS SEROTINUS; [2]) was 0 (90 à 100). For the same compound, the “% d'efficacité CYPERUS SEROTINUS (1 feuille)” value (CYPERUS SEROTINUS; [3]) was 1 (70 à 90), the “% d'efficacité CYPERUS SEROTINUS (prélevée)” value (CYPERUS SEROTINUS; [2]) was 0 (90 à 100) and the “% d'efficacité CYPERUS SEROTINUS (prélevée)” value (CYPERUS SEROTINUS; [3]) was 1 (70 à 90).
